Two compounds from paper PMC10482942, “Novel quinazoline-1,2,3-triazole hybrids with anticancer and MET kinase targeting properties” (Scientific Reports, 2023) can be followed below.

Test [1] concerns the target T1, ALK (h) (Homo sapiens, UniProt Q9UM73).
T1 construct: purchased Eurofins Discovery
Put plainly: Radiometric kinase panel assay. The settings on record: Km ATP. It counts as biochemical.

For test [2], the target named is T2, ABL (h) (Homo sapiens, UniProt P00519).
T2 construct: purchased Eurofins Discovery
The test is described as follows: Radiometric kinase panel assay. Format: biochemical. The note with it: Km ATP.

Test [3] addresses T3, FLT3 (h) (Homo sapiens, UniProt P36888).
T3 construct: purchased Eurofins Discovery
The test is described as follows: Radiometric kinase panel assay. It counts as biochemical. The settings on record: Km ATP.

The target in test [4] is T4, KIT (h) (Homo sapiens, UniProt P10721).
T4 construct: purchased Eurofins Discovery
Put plainly: Radiometric kinase panel assay. It counts as biochemical. The note with it: Km ATP.

The target in test [5] is T5, MET kinase (Homo sapiens, UniProt P08581).
T5 construct: purchased Millipore
Put plainly: MET kinase enzymatic HTRF assay. It counts as biochemical. How it is done: HTRF assay detects the phosphorylation level of a biotinylated tyrosine kinase substrate peptide (TK substrate) by MET kinase. The HTRF® KinEASE™ TK kit and MET kinase were purchased from Cisbio and Millipore, respectively. The optimal conditions for enzyme, substrate, ATP concentrations, and enzymatic reaction times were set.
In order to prepare the test compounds, after dissolving in DMSO, they were diluted in the reaction buffer containing 50 mM HEPES pH 7.0, 0.1 mM sodium orthovanadate, 0.01% BSA, 0.02% NaN3, 10 mM MgCl2, 5 mM MnCl2, 2 mM DTT. […] Finally, the Time Resolved-Fluorescence Resonance Energy Transfer (TR-FRET) signal was measured after an hour of incubation at room temperature.
The following equations were used to determine the inhibition rate (%): Ratio665/620=Emission665 nm/Emission620nm ΔR=Ratio Sample665/620-Ratio Background665/620∗100/Ratio Background665/620 Inhibition%=ΔRControl-ΔRSample∗100/ΔRControl
Background samples contained all reagents except for the enzyme. Control wells contained the same amount of DMSO contained in the sample.

For test [6], the system named is AsPC-1 cells. Put plainly: Apoptosis induction, annexin V-FITC/PI flow cytometry. Format: cell-based, human. The settings on record: 10 μM, 48 h; for Late apoptosis: untreated 4.8%; for Early apoptosis: untreated 7.6%; for Percentage of total apoptosis: untreated 12.4%. How it is done: The ability of apoptosis induction of synthetic compounds was evaluated by FACS analysis with Annexin V-FITC/propidiuim iodide (PI) staining kit (BD Pharmingen, San Diego, CA, USA). AsPC-1 cells were cultured in 6-well plates at a density of 1 × 10^5 cells/ml. After 24 h, the synthesized derivatives at different concentrations were added and incubated for 48 h. After addition of trypsin to each well, the cells were harvested, transferred to 1.5 ml tubes and washed twice with PBS. At the final step, the cells were stained with Annexin V-FITC (5 µl) and PI (5 µl), followed by analysis by a FACS Calibur flow cytometer (Becton Dickinson, Mountain View, CA, USA). The effects of synthetic derivatives on the apoptosis rate were evaluated based on the fluorescence signal of 20,000 events.

Test [7] addresses T6, TRKA (h) (Homo sapiens, UniProt P04629).
T6 construct: purchased Eurofins Discovery
Put plainly: Radiometric kinase panel assay. The note with it: Km ATP. Format: biochemical.

The target in test [8] is T7, AKT1 (h) (Homo sapiens, UniProt P31749).
T7 construct: purchased Eurofins Discovery
Put plainly: Radiometric kinase panel assay. It counts as biochemical. The settings on record: Km ATP.

Test [9] has as its system K562 cells. Put plainly: SRB antiproliferative assay, monolayer culture. It counts as cell-based, human. The settings on record: Homo sapiens, K562, 72 h, mean ± S.E.M. How it is done: (§1) EBC-1 (human lung […] cells with MET gene amplification) and Mia-Paca-2 (human PDAC cells) were obtained from Japanese Collection of Research Bio Resources Cell Bank (JCRB). AsPC-1 (human PDAC), MKN-45 (human gastric adenocarcinoma cells with MET gene amplification), HT-29 (human colorectal adenocarcinoma), and K562 cells (human chronic myelogenous leukemia) were obtained from the Iranian Biological Resource Centre, Tehran, Iran. AsPC-1, EBC-1, MKN-45, and K562 cells were cultured in RPMI 1640 medium containing 10% heat-inactivated fetal bovine serum (FBS) and 1% penicillin/streptomycin. Mia-Paca-2 and HT-29 cells were grown in DMEM low glucose, containing 10% and 20% heat-inactivated FBS, resoectively and 100 U/ml penicillin/streptomycin. All cells were grown in monolayer cultures at 37 °C in a humidified incubator with 5% CO2.
(§2) Antiproliferative effects of synthetic compounds were evaluated by the SRB assay as described previously. Cancer cells were trypsinized, homogenous cell suspensions were prepared and 100 µl of cell suspensions were cultured at the densities of 5 × 10^4 cells/ml (for AsPC-1 and Mia-Paca-2), 4 × 10^4 cells/m (for EBC-1 and MKN-45), 3 × 10^4 cells/ml (for K562) and 1 × 10^4 cells/ml (for HT-29) in 96-well flat-bottom plates. After 24 h of incubation to allow cells to attach and resume optimal growth, the synthetic compounds dissolved in DMSO and diluted in the growth medium were added. One hundred µl of synthesized derivatives were added at different concentrations in triplicate and incubated for an additional 72 h at 37 °C. The cells were then fixed by gentle addition of 50 μl cold trichloroacetic acid (TCA) 50% (w/v, 10% final concentration) and incubated for 60 min at 4 °C. Then, the supernatant was discarded, and the plates were washed four times with distilled water and air dried. Afterwards, 100 μl of SRB solution 0.04% (w/v) dissolved in 1% acetic acid was added to each well, and plates were incubated for 15 min at room temperature. At the next step, the unbound dye was removed by washing four times with 1% acetic acid and the plates were air dried. The bound stain was finally solubilized with 150 μl of 10 mM Tris base solution, and the absorbance was recorded at a wavelength of 540 nm with a Bio-Tek microplate reader (Model Synergy HTX).
Background: In SRB staining, fixed cells bind dye roughly in proportion to their protein.

Test [10] deals with Mia-Paca-2 cells. The test is described as follows: SRB antiproliferative assay, monolayer culture. It counts as cell-based, human. The settings on record: Homo sapiens, MIA PaCa-2, 72 h, mean ± S.E.M. As for the experimental part: as §1, §2
The subject of test [11] is HT-29 cells. The test is described as follows: SRB antiproliferative assay, monolayer culture. The note with it: Homo sapiens, HT-29, 72 h, mean ± S.E.M. Format: cell-based, human. How it is done: as §1, §2
For test [12], the system named is MKN-45 cells. The test is described as follows: SRB antiproliferative assay, monolayer culture. The note with it: Homo sapiens, MKN-45, 72 h, mean ± S.E.M. Format: cell-based, human. How it is done: as §1, §2
Test [13] relates to AsPC-1 cells. The test is described as follows: SRB antiproliferative assay, monolayer culture. Format: cell-based, human. The note with it: Homo sapiens, ASPC1, 72 h, mean ± S.E.M. How it is done:
as §1, §2

The test system of test [14] is EBC-1 cells. Put plainly: SRB antiproliferative assay, monolayer culture. It counts as cell-based, human. The settings on record: Homo sapiens, EBC-1, 72 h, mean ± S.E.M. As for the experimental part:
as §1, §2

T5 sequence (P08581 25-1390): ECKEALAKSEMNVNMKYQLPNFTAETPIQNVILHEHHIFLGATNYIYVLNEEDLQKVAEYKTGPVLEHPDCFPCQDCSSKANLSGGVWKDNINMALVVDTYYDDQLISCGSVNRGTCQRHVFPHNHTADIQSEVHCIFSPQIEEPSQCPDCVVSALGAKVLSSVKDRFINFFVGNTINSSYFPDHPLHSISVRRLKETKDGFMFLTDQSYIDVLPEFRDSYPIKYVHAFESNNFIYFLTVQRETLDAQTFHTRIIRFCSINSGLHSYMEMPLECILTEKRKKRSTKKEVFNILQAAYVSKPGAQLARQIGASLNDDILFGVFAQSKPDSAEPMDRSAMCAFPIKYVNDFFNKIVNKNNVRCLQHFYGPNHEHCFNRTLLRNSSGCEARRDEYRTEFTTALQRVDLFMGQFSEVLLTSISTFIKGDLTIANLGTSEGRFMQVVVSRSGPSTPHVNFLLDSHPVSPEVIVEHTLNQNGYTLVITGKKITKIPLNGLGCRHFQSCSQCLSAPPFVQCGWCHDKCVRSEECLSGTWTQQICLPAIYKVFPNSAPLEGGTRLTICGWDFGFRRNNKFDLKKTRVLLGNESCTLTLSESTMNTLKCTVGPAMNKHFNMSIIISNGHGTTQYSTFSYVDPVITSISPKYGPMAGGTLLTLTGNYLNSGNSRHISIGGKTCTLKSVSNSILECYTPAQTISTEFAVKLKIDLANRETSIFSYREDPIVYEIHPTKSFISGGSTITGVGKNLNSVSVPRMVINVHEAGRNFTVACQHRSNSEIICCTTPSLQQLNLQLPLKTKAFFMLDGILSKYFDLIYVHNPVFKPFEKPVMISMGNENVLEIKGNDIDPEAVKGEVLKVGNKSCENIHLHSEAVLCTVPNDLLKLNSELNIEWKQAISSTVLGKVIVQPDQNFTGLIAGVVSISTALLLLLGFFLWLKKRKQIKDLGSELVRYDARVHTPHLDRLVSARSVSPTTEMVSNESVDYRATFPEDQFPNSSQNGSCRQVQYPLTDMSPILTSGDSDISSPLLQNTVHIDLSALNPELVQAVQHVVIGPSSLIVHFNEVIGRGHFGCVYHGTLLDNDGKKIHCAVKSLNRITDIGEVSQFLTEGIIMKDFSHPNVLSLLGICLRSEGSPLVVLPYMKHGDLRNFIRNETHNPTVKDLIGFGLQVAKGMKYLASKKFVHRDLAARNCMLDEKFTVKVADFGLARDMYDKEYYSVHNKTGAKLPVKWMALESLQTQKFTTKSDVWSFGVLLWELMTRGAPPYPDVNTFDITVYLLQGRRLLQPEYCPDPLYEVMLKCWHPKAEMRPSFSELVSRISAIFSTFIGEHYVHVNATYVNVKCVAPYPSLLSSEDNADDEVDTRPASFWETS
T3 sequence (P36888 27-993): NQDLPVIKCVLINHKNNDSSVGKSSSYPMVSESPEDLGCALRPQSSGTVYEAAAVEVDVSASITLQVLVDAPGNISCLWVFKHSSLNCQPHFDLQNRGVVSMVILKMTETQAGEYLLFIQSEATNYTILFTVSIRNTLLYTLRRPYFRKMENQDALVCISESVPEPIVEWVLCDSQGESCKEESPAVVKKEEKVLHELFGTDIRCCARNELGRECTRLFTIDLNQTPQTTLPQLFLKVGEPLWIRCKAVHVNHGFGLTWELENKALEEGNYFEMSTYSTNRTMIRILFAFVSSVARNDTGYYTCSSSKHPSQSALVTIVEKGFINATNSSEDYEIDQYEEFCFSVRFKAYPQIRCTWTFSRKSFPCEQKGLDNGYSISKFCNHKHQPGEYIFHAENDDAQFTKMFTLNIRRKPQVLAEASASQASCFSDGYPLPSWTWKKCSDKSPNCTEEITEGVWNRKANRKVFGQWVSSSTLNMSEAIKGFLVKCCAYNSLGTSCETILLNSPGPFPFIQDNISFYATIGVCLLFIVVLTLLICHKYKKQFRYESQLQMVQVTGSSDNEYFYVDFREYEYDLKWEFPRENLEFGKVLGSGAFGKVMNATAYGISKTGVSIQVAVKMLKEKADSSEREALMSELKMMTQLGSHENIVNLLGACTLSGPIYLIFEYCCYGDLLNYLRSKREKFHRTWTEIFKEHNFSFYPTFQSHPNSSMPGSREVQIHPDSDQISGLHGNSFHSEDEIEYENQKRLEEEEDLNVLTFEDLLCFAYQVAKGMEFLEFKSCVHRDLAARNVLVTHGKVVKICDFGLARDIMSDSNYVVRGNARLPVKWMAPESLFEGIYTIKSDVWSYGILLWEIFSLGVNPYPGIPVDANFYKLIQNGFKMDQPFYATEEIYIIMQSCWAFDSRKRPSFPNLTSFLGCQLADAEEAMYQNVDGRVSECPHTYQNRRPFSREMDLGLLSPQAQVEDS
T2 sequence (P00519 whole entry): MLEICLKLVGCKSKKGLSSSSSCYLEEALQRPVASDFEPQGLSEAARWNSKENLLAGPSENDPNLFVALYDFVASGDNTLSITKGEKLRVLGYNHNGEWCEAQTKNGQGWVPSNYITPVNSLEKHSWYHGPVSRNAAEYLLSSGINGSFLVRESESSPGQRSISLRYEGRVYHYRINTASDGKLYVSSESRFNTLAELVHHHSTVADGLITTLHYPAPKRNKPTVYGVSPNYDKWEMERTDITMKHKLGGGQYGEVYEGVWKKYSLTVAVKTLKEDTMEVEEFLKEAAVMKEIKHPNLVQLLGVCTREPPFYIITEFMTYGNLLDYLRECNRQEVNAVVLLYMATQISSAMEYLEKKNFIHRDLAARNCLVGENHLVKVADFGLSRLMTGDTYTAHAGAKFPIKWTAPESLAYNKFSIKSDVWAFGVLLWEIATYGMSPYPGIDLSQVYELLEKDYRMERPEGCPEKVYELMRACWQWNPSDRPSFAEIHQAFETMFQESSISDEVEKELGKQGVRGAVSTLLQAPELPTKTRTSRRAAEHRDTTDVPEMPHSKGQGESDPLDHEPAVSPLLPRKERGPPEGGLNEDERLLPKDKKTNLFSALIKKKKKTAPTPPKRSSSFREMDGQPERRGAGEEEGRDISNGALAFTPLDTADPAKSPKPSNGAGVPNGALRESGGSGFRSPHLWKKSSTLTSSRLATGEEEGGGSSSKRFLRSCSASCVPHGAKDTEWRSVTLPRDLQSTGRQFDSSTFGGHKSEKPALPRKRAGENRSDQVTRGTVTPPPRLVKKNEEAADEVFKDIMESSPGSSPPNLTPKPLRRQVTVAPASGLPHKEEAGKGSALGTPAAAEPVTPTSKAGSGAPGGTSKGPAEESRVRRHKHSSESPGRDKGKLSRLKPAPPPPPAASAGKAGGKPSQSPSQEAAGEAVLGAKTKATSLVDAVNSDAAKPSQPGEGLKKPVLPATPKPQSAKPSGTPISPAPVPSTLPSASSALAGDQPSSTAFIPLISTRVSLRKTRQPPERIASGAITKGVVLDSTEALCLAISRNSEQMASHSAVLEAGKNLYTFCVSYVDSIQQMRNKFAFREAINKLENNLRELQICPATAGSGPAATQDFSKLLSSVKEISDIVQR
T1 sequence (Q9UM73 19-1620): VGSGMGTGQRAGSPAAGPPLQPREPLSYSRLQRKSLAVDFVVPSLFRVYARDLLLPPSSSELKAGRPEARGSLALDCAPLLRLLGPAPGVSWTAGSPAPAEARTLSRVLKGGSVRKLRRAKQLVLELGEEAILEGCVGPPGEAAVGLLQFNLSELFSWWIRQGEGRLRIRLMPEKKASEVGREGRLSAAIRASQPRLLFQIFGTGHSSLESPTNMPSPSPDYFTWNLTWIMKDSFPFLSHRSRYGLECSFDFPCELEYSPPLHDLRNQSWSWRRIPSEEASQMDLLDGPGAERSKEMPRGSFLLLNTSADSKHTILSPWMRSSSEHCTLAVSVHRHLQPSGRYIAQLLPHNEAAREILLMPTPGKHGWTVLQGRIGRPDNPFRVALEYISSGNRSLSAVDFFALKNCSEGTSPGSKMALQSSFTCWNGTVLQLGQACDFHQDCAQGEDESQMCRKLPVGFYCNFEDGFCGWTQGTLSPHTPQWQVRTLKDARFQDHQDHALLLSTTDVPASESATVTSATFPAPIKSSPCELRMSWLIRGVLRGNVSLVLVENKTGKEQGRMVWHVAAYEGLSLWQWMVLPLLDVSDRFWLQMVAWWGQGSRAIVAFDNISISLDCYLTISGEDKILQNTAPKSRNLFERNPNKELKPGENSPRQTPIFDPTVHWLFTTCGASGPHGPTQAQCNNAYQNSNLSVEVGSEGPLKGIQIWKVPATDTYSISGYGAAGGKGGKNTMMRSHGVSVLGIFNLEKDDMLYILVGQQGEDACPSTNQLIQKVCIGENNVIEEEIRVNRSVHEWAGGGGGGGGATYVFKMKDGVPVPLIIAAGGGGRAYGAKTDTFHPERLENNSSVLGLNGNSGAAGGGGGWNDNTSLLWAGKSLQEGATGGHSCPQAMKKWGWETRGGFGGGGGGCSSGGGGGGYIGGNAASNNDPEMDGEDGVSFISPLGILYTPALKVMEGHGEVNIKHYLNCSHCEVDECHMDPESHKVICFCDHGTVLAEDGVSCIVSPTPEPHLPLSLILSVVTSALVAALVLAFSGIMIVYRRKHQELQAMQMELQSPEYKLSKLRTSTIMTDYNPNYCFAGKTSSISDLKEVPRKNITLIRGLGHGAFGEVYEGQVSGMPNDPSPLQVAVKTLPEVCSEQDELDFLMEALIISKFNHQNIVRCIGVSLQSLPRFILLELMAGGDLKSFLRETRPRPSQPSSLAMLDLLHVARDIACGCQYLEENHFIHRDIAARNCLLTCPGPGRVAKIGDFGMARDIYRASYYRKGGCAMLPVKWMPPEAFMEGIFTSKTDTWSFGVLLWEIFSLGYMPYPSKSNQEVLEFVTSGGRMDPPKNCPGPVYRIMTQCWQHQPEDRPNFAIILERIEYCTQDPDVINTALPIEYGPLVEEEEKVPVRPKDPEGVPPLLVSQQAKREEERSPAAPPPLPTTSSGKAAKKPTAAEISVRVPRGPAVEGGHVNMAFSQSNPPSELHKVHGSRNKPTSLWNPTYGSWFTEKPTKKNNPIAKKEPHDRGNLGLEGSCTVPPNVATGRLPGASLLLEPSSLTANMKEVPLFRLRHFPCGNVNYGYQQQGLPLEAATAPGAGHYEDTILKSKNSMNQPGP

Regarding `Cc1ccc(Cn2cc(COc3ccc(C=NNc4ncnc5ccccc45)cc3)nn2)cc1` [Compound 8c, 2-(4-((1-(4-Methylbenzyl)-1H-1,2,3-triazol-4-yl)methoxy)benzylidene)-1-(quinazolin-4-yl)hydrazine], the inhibition at 10 µM came to 3% in test [1]; 8% in [2]; 8% in test [3]; 7% in [4]; 13% in test [7]; 15% in test [8]. The IC50 is 36 ± 9.5 µM in test [5] (HTRF assay, read-out: MET kinase inhibition IC50); 31.5 ± 6.4 µM in [9]; 25.6 ± 2.4 µM in test [10]; 21 ± 4.7 µM in [11]; 22 ± 4.8 µM in test [12]; 15.3 ± 2.3 µM in test [13]. Also, the IC50 in test [14] stood at 19 ± 0.7 µM. In [6], this compound had a Late apoptosis of 10.7%. In addition, the Early apoptosis in [6] stood at 15.5%. Further, the “Percentage of total apoptosis” value in [6] was determined as 26.1%.
As to `CC(C)(C)c1ccc(Cn2cc(COc3ccc(C=NNc4ncnc5ccccc45)cc3)nn2)cc1` [Compound 8h, 2-(4-((1-(4-Tert-butylbenzyl)-1H-1,2,3-triazol-4-yl)methoxy)benzylidene)-1-(quinazolin-4-yl)hydrazine], the inhibition at 10 µM was 14% in test [1]; 17% in [2]; 18% in [3]; 2% in [4]; 22 ± 7.4% in [5] (at 10 μM, mean ± S.E.M., read-out: Inhibitory effect against MET kinase); 28% in test [7]. Also, in test [8], the inhibition at 10 µM came out at 26%. Besides, the inhibition at 25 µM in test [5] (at 25 μM, mean ± S.E.M., read-out: Inhibitory effect against MET kinase) came out at 25.7 ± 4.7%. Further, the inhibition at 50 µM in test [5] (at 50 μM, mean ± S.E.M., read-out: Inhibitory effect against MET kinase) was 32.9 ± 2.2%. The compound also had a Late apoptosis in test [6] of 9.6%. In test [6], the Early apoptosis is 15.8%. Moreover, the “Percentage of total apoptosis” value in test [6] came out at 25.4%. Further, the IC50 in test [9] stood at 34.4 ± 6.4 µM; in test [10], 11.5 ± 0.8 µM; in [11] it was 8.6 ± 1.3 µM; in [12], 12 ± 3.9 µM; in [13], 9.7 ± 1.9 µM; in test [14], 6.1 ± 1 µM.

As a reminder, the IC50 is the point on the concentration scale where inhibition reaches its midpoint.
